The source of these data is US20250179029A1, “DEUTERATED RETINOIDAL COMPOUNDS AND SYNTHESIS AND USES THEREOF” (UNIVERSITY OF MARYLAND, BALTIMORE, priority 2022, published 2025).

In data set [1] the test system is MCF7. Put plainly: MTT antiproliferative assay, MCF7 non-TNBC cells. Format: cell-based. The conditions noted are these: mean of three independent experiments. As to the method: (§1) Compounds 2, 4, 8 and 9, as well as paclitaxel (PTX) were evaluated over a range of concentrations to examine their antiproliferative activities against two non-TNBC cell lines, MCF7 and SKBR3using the well-established 3-(4,5-dimethylthiazolyl-2)-2,5-diphenyl tetrazolium bromide (MTT) assay.^48,55,56 The parent non-deuterated VNLG-152R (Compound 2) was used as the positive control.
(§2) As presented in Table 1 below, the GI50 values of the deuterated Compounds 4, 8 and 9 against the MCF7 cell are identical to the GI50 value of the parent protio VNLG-152R (Compound 2). In contrast, the SKBR3 cell appears to be more sensitive to the deuterated compounds compared to the parent non-deuterated VNLG-152R (Compound 2). The reason for this difference is not understood at this time. The applicant hypothesizes that the enhanced diffusion of these deuterated molecules across the cell membrane of this cell line may result in enhanced intracellular concentrations and inhibition of its proliferation. Each data point is a mean of replicates from three independent experiments.

The test system of data set [2] is SKBR3. Put plainly: MTT antiproliferative assay, SKBR3 non-TNBC cells. The conditions noted are these: mean of three independent experiments. Format: cell-based. As to the method:
as §1, §2
(In general: Tetrazolium assays rely on reduction of a dye to a coloured formazan, in cell work by metabolically active cells.)

For data set [3], the system named is Mnk1, peIF4E, eIF4E, cyclin D1, Bcl-2, Bax in MDA-MB-231 cells. Put plainly: Western blotting of Mnk1 and downstream targets in MDA-MB-231 cells. Format: cell-based, human. The conditions noted are these: MDA-MB-231, 5, 10 and 20 µM, 24 h, Western blot. An excerpt: The applicant had previously reported that the antiproliferative effects of Compound 1 and our other Mnk1/2 degraders in breast cancer cells was due to degradation of Mnk1/2 with consequent depletion of peIF4E and modulation of the downstream molecular targets.^48,55,56 Thus, the deuterated analogs were further examined for their effects on the degradation of Mnk1 and the other related downstream molecular targets in both MDA-MB-231 and MDA-MB-468 TNBC cells by Western blotting analysis.
The human breast cancer cell lines, MDA-MB-231, MDA-MB-468 were procured from ATCC (Manassas, VA) and cultured in the recommended media supplemented with 10% heat-inactivated standard fetal bovine serum (FBS, GIBCO) and 1% penicillin-streptomycin (10,000 U/ml, Life Technologies) at 37° C. and 5% CO2. Primary antibodies against Mnk1, eIF4E, p-eIF4E, Cyclin D1, BCL2, BAX, β-actin, and secondary RP-conjugated anti-rabbit used in the study were procured from Cell Signaling Technology, USA. Cells were lysed with radioimmunoprecipitation assay (RIPA) buffer supplemented with 1× protease inhibitors (Roche, Indianapolis, IN, USA), phosphatase inhibitors (Thermo Scientific, Waltham, MA, USA), 1 mmol/L EDTA and 1 mmol/L PMSF (Sigma) and immunoblotting analyses were performed as described previously.^48,64
The non-deuterated VNLG-152R (Compound 2) and the vehicle, DMSO were used as positive and negative controls, respectively. Equal protein concentrations from breast cancer cells treated with the compounds at different concentration (5, 10 and 20 µM) for 24 h were separated by SDS-PAGE and Western blots probed with the respective protein antibodies. Vehicle treated cells were included as a control, and all blots were reprobed for R-actin for loading control.
Background: A western blot detects proteins with antibodies after separation by electrophoresis.

The nature of data set [4]: Plasma pharmacokinetics after single oral dose in female CD-1 mice. Format: in vivo. As to the method:
The PK study was performed by the Certified Research Organization (CRO), Aragen Life Sciences Private Limited (Aragen), Hyderabad, India. All procedures of the present study were in accordance with the guidelines provided by the Committee for the Purpose of Control and Supervision of Experiments on Animals (CPCSEA) as published in The Gazette of India, Jan. 7, 2010. CPCSEA renewal number for institute is 1125/PO/Rc/S/CPCSEA on 13Feb. 2014. Institutional Animal Ethics Committee (IAEC) approval has been taken to initiate the study (IAEC Approval Number: B-011A). The details are presented in the Supplementary Materials.
To minimize the number of mice used in the PK study using a validated LC/MS/MS analysis, both individual (discrete) (set #1: Compound 5, EM=463.2937 and set #2: […], EM=463.2937) and cassette (set #3: Compounds 2, 3, and 7; EMs=459.2686, 462.2874 and 466.3125, respectively, and set #4: Compounds 4, 8, and 9; EMs=460.2749, 464.2999 and 467.3188, respectively) dosing were used.^59,66 The four sets studied were dictated by the exact molecular masses of the compounds as indicated above and in FIG. 3.
The plasma PK profiles were obtained after single oral (PO) dosing of the compounds in mice.
In Table 2, data are presented as the mean of values obtained from three female CD-1 mice. Cmax is the maximum observed plasma concentration. Tmax is the time to maximum concentration. T1/2 is the elimination half-life. AUC represents AUC (0-∞), which is the area under the concentration-time curve from time of dosing extrapolated to infinity. MRT refers to mean residence time. The number in parentheses indicate the rank order from best (1) to worst (8).

Data set [5] deals with MDA-MB-231 tumor xenograft. Put plainly: Anti-tumor activity in MDA-MB-231 xenograft mouse model. Format: in vivo. The conditions noted are these: 20 mg/kg, PO, 5 days/week, 16 days. The procedure: (§3) FIGS. 13A-13D show the anti-tumor activity of VNLG-152R, Compound 4, Compound 8, and Compound 9 in xenograft mouse models. […] In FIGS. 13B and 13D, *=p<0.0001.
(§4) After confirming the improved pharmacokinetic parameters of deuterated compounds 4, 8, and 9, the anti-tumor activity of these compounds was tested in xenograft models of MDA-MB-231 and MDA-MB-468. In both models, the mice for each group were treated with either vehicle (control) or the compounds, each at 20 mg/kg, PO, 5 days/week.

Data set [6] has as its system MDA-MB-468 tumor xenograft. Put plainly: Anti-tumor activity in MDA-MB-468 xenograft mouse model. Format: in vivo. Conditions: 20 mg/kg, PO, 5 days/week, 16 days. The procedure:
as §3, §4

Data set [7] deals with Mnk1, peIF4E, cyclin D1 in MDA-MB-231 cells. Put plainly: Western blotting of Mnk1 and downstream targets in MDA-MB-231 cells (mechanism study). Format: cell-based, human. The conditions noted are these: MDA-MB-231, 24 hours, FIG. 14B. As to the method: FIGS. 14A and 14B show the in vitro effects of VNLG-152R on synoviolin 1 (SYVN1) and other targets in MDA-MB-231 cells.
After confirming the anti-tumor effect of VNLG-152R, the molecular mechanism of VNLG-152R was studied, in order to help identify potential new molecular targets for treatment. Using an established procedure^70,71, a label-free proteomics analysis was conducted. MDA-MB-231 cells were treated for 24 hours with VNLG-152R in the concentrations indicated in FIGS. 14A and 14B, followed by Western blotting of whole cell lysates.

In data set [8] the test system is androgen-sensitive and castration-resistant human prostate cancer cells. The conditions noted are these: androgen-sensitive and castration-resistant human prostate cancer cells in vitro; cited from earlier work.
The mark [9] stands for this setting: single p.o. dose 10 mg/kg, female CD-1 mice, plasma.

As a reminder, the GI50 is the concentration giving 50% growth inhibition. Higher therefore signals less potent growth inhibition. For orientation: Tmax means the time at which the peak concentration occurs. For orientation: Cmax means the maximum level reached in the sampled fluid or tissue.

The compound `CC1=C(/C=C/C(C)=C/C=C/C(C)=C/C(=O)Nc2ccc(F)cc2)C(C)(C)CCC1n1ccnc1` (racemic) [Compound 2, (±) 4-Imidazolyl-4(H)-(4′-fluoro(phenyl))-(E)-retinamide] showed a 50% growth inhibitory concentration (GI50) in data set [1] of 350 ± 110 nM. Besides, the GI50 in data set [2] was 260 ± 120 nM. Besides, in data set [3], the “expression of Mnk1” value is “significantly and dose-dependently reduced”; the “expression of peIF4E” value is “significantly and dose-dependently reduced”; the “expression of total eIF4E” value is “without noticeable effects”. Moreover, the “clearance from systemic circulation (plasma concentration versus time profile)” value in data set [4] (single PO dosing, mice, FIGS. 12A-12C) is reported as “could not be detected after 8 hours”. In addition, in data set [4] (setting [9]), the “AUC (0-∞)” value stood at 22764.75 ng·h/mL, the “MRT (mean residence time)” value is listed as 3.02 h, the “T1/2 (elimination half-life)” value is recorded as 3.61 h and the Tmax is recorded as 0.83 h. The compound further showed a peak concentration (Cmax) in data set [4] (single p.o. dose 10 mg/kg, female CD-1 mice, plasma, mean of three mice) of 4651.88 ng/mL. Further, the “reduction of tumor growth” value in data set [5] is given as 87%. For the same compound, in data set [6], the “reduction of tumor growth” value came to 81%. Also, in data set [7], the Mnk1 level entry is listed as “dose-dependent Mnk1 depletion”, the “cyclin D1 level” value is listed as “suppression” and the peIF4E level result is “suppression”. The “anti-proliferative and anti-metastatic activities” value in data set [8] is “potent”.
